Converted amounts (≈) assume the structure as drawn.
Experiments:
[1] = 300 K, cited from earlier work
[2] = Enthalpy and entropy of dissolution from Van't Hoff plot of solubility versus temperature; format: physicochemical
Method: The enthalpy and entropy of dissolution of KGA and GA. The enthalpy and entropy of dissolution are calculated here using the solubility of KGA and GA in solutions of identical solvent composition as a function of temperature. The solubility of KGA and GA and related thermodynamic properties (enthalpy and entropy of dissolution) are important because they can be used for building a crystallization model and optimizing crystallization conditions in a large scale process. Accordingly, using the solubility data obtained for each compound (FIG. 2B), the enthalpy and entropy of dissolution of both KGA and GA were calculated using the Van't Hoff equation.
In Equation 1, x is the mole fraction of a compound in the solvent, Δ_dis H and Δ_dis S are the enthalpy and the entropy of dissolution, T is the absolute temperature, and R represents the ideal gas constant. The solubility of KGA or GA was measured by varying temperature to plot ln x versus 1/T, and the resulting values of enthalpy and entropy of dissolution was determined from the slope and the intercept, respectively.
The antisolvent loading in each mixture is the same as used in each purification process. Table 4 provides the dissolution enthalpy and entropy of both KGA and GA calculated from Eq. (1) using the linear fits in FIG. 5. […] The […] of GA solubility data yields a negative entropy of dissolution for GA. This could be because dissolved GA is in equilibrium with lactones, and they form dimers or organized structures that are represented by this value.

[3] = Reported pKa values of glucaric acid and molar speciation calculated from them; format: physicochemical; conditions: at pH 3.6, calculated from reported pKa values
Text: The inset photo is the KGA precipitate from broth pH adjusted to 3.5 (left) and broth pH adjusted to 3.5 with acetone 25 wt. % acetone addition (right).

[4] = KGA Solubility Test (glucarate solubility at various pH in water and acetone/water, quantified by LC); conditions: for solubility: 22 °C, thermodynamic from solid
Method: (§1) KGA Solubility Test: KGA solubility was quantified by adding excess KGA to UHP water and adjusting pH between 1-6 by addition of 2 M HCl or 2 M KOH with stirring. The samples were mixed, allowed to sit overnight, and then the pH was measured again. The samples were filtered, diluted with a pH 7 phosphate buffer to reduce lactonization and the KGA concentration was quantified by LC. Similarly, KGA solubility in a 25.2 wt. % acetone solution was measured by preparing KGA-saturated solution samples at −20° C., 22° C. and 40° C. and quantified by using the liquid chromatography (LC) method.
(§2) 15 μl samples were injected into a Phenomenex Luna C18(2) 5 μm, 150 mm×4.6 mm column at a temperature of 35° C. An isocratic mobile phase of 20 mM potassium phosphate at pH 7 was pumped at a flow rate of 0.65 mL/min for 7 min.

[5] = reported pKa value of glucaric acid; cited from earlier work
physchem = conditions: pH 1.5, aqueous buffer, thermodynamic from solid
Method: as §1, §2

[6] = GA Solubility Test (TGA mass balance of saturated solution); format: physicochemical; conditions: 4° C.
Method: GA Solubility Test: Due to the lactonization potential of glucaric acid, the solubility was estimated using thermogravimetric analysis (TGA) based on the mass balance of the saturated solution. A sample of acetone-washed GA was dissolved in 3 mL of the IPA/water mixture (7:1 by mass) to excess, sonicated, and allowed to settle overnight at each of three temperatures: −20° C., 4° C. and 22° C. Next, the solutions were filtered at a pore size of 0.45 μm. These saturated solutions were dropped into an aluminum Differential Scanning calorimetry (DSC) pan and placed on dry ice to partially freeze them and slow the evaporation rate so that the mass of the total solution could be measured by TGA. The partially frozen solution was heated from room temperature at 5° C. per minute to 110° C. and held isothermally for 15 minutes to allow the solvent to evaporate. In this way, the mass of the remaining species in the pan was determined to μg precision. This was taken to be the total mass of GA that had dissolved in the solvent, including possible lactone products, in a catch-all method.

## O=C1O[C@H]2[C@H](OC(=O)[C@@H]2O)[C@@H]1O [1,4:6,3-dilactone, D-glucaro-1,4:6,3-dilactone]
[1]; 1,4:6,3-dilactone → 6,3-lactone (so in the source)
  Rate constant k8: 5.01e-05 s⁻¹
[1]; 1,4:6,3-dilactone → 6,3-lactone
  Rate constant k6: 0.00197 s⁻¹

## O=C(O)[C@@H](O)[C@@H](O)[C@H](O)[C@@H](O)C(=O)[O-].[K+] [KGA, monopotassium glucarate]
[2]; solvent Acetone 24.7 wt. %
  AdisH: 7.639 kcal/mol
  AdisS: 35.70 J/mol/K
[3]
  maximum concentration (molar fraction) of KGA form: 55 mol %
[4]; pH 3.5, aqueous buffer
  solubility: ~16 mg/mL
[4]; pH 3.5, aqueous with cosolvent or surfactant or cyclodextrin
  solubility: ~8.1 mg/mL
[4]; acetone 25 wt. %, pH 3.5
  additional reduction of solubility by adding acetone: 50%
[4]; fermentation broth, pH 3.5, acetone (30 vol %)
  solubility in broth: almost zero
[4]; high purity water, no pH adjustment
  saturation limit in high purity water: 0.06 M
[4]; pH 3.5
  solubility relative to the solubility of K2GA at pH 5.8: 13.5 mol %

## O=C([O-])[C@@H](O)[C@@H](O)[C@H](O)[C@@H](O)C(=O)[O-].[K+].[K+] [K2GA, dipotassium glucarate]
[4]; aqueous buffer
  solubility: > 120 mg/mL

## O=C(O)[C@@H](O)[C@H]1OC(=O)[C@H](O)[C@H]1O [1,4-lactone, D-glucaro-1,4-lactone]
[1]; 1,4-lactone → GA
  Rate constant k1: 7.04e-05 s⁻¹

## O=C1O[C@H]([C@@H](O)C(=O)O)[C@H](O)[C@@H]1O [6,3-lactone, D-glucaro-6,3-lactone]
[1]; 6,3-lactone → 1,4:6,3-dilactone (so in the source)
  Rate constant k7: 0.000664 s⁻¹
[1]; 6,3-lactone → 1,4:6,3-dilactone
  Rate constant k5: 0.000174 s⁻¹
[1]; 6,3-lactone → GA
  Rate constant k4: 8.7e-05 s⁻¹

## O=C(O)[C@@H](O)[C@@H](O)[C@H](O)[C@@H](O)C(=O)O [GA, glucaric acid]
[1]; GA → 1,4-lactone
  Rate constant k2: 4.84e-05 s⁻¹
[1]; GA → 6,3-lactone
  Rate constant k3: 5.52e-05 s⁻¹
[5]
  pKa1: 3.17
  pKa2: 3.96
pH 1.5
  higher solubility than KGA: 56%
pH 3.1
  solubility increase as pH is decreased: about 55%
[2]; solvent Isopropanol 87.5 wt. %
  AdisH: 0.88 kcal/mol
  AdisS: −40.78 J/mol/K
physchem
  solubility: 26 mg/mL (≈ 124 mM)
[6]
  solubility in IPA-water lower than that in ACN-water: 53%
  solubility in IPA-water lower than that in water: 77%
